Data from patent publication US20240287028A1, “HERBICIDAL PHENYLURACILS” (BASF SE, priority 2021, published 2024).

Columns and labels:
Assay in all cases: greenhouse herbicidal test, post-emergence treatment
Assay type in all cases: in vivo
[1] = test system: Digitaria insularis; conditions: scale 0 to 100
Description: (§1) The culture containers used were plastic flowerpots containing loamy sand with approximately 3.0% of humus as the substrate. The seeds of the test plants were sown separately for each species.
(§2) For the pre-emergence treatment, the active ingredients, which had been suspended or emulsified in water, were applied directly after sowing by means of finely distributing nozzles. The containers were irrigated gently to promote germination and growth and subsequently covered with transparent plastic hoods until the test plants had rooted. This cover caused uniform germination of the test plants, unless this had been impaired by the active ingredients. For the post-emergence treatment, the test plants were first grown to a height of 3 to 15 cm, depending on the plant habit, and only then treated with the active ingredients which had been suspended or emulsified in water. For this purpose, the test plants were either sown directly and grown in the same containers, or they were first grown separately as seedlings and transplanted into the test containers a few days prior to treatment.
(§3) Depending on the species, the test plants were kept at 10-25° C. or 20-35° C., respectively. The test period extended over 2 to 3 weeks. During this time, the test plants were tended, and their response to the individual treatments was evaluated.
(§4) Evaluation was carried out using a scale from 0 to 100. 100 means no emergence of the test plants, or complete destruction of at least the aerial moieties, and 0 means no damage, or normal course of growth. A good herbicidal activity is given at values of at least 70 and a very good herbicidal activity is given at values of at least 85.

[2] = test system: Setaria faberi; conditions: scale 0 to 100
Description: as §1, §2, §3, §4

[3] = test system: Erigeron canadensis; conditions: application rate 4 g/ha, scale 0 to 100
Description: as §1, §2, §3, §4

| Compound | damages, unwanted plants TRCIN ([1]; application rate 2 g/ha) | damages, unwanted plants TRCIN ([1]; application rate 4 g/ha) | damages, unwanted plants SETFA ([2]; application rate 1 g/ha) | damages, unwanted plants SETFA ([2]; application rate 2 g/ha) | damages, unwanted plants SETFA ([2]; application rate 4 g/ha) | damages, unwanted plants ERICA [3] |
| --- | --- | --- | --- | --- | --- | --- |
| CCOC(=O)COc1ncccc1Oc1cc(-n2c(=O)cc(C(F)(F)F)n(C)c2=O)c(F)cc1Cl [cmpd I-2-8] | 90 | 90 | 70 | 85 | 90 | 65 |
| CCOC(=O)COc1ncccc1Oc1cc(-n2c(=O)cc(C(C)(F)F)n(C)c2=O)c(F)cc1Cl [Example 1.1, Ethyl 2-[[3-[2-chloro-5-[4-(1,1-difluoroethyl)-3-methyl-2,6-dioxo-pyrimidin-1-yl]-4-fluoro-phenoxy]-2-pyridyl]oxy]acetate] | 95 | 100 | 80 | 90 | 95 | 100 |
